For 23 molecules, ring closure, isolated yield results are on record in patent US20240279214A1, “ALPHA4 BETA7 INEGRIN ANTAGONISTS AND USES THEREOF” (XinThera, Inc., priority 2022, published 2024).

Where two headings read alike, the source gives them in different places.

The conditions of this data set: ether bond, 13-membered ring, 100.0 °C.

In the case of `COC(=O)C[C@@H]1NC(=O)C(n2ccc(C(F)(F)F)cc2=O)c2cc(ccc2F)Oc2cccc(C)c2-n2cc1c(C(F)(F)F)n2` (some centres unmarked), the ring closure, isolated yield (from COC(=O)C[C@H](NC(=O)C(c1cc(Br)ccc1F)n1ccc(C(F)(F)F)cc1=O)c1cn(-c2c(C)cccc2O)nc1C(F)(F)F, CuI/(1R,2R)-N,N'-dimethylcyclohexane-1,2-diamine/K2CO3, 1,4-dioxane, 65.0 mM, 2.0 h) is 22.5%.

`CCOC(=O)C[C@@H]1NC(=O)C(n2cc3ccccc3cc2=O)c2cc(ccc2F)Oc2cccc(C)c2-c2cc(C)c(F)c1c2` (some centres unmarked) registered a ring closure, isolated yield (from CCOC(=O)C[C@H](NC(=O)C(c1cc(Br)ccc1F)n1cc2ccccc2cc1=O)c1cc(-c2c(C)cccc2O)cc(C)c1F, CuI/(1R,2R)-N,N'-dimethylcyclohexane-1,2-diamine/K2CO3, dioxane, 58.0 mM, 2.0 h) of 33.9%.

`CCOC(=O)C[C@@H]1NC(=O)C(n2cc(CCN3CC(F)C3)c(C(F)(F)F)cc2=O)c2cc(ccc2F)Oc2ccc(F)cc2-c2cc(C)c(F)c1c2` (some centres unmarked): for the setting “from CCOC(=O)C[C@H](NC(=O)C(c1cc(Br)ccc1F)n1cc(CCN2CC(F)C2)c(C(F)(F)F)cc1=O)c1cc(-c2cc(F)ccc2O)cc(C)c1F, CuI/(1R,2R)-N1,N2-dimethylcyclohexane-1,2-diamine/K2CO3, dioxane, 95.0 mM, 3.0 h”, the ring closure, isolated yield was 54.4%.

The molecule `CCOC(=O)C[C@@H]1NC(=O)C(n2cc(CCN3CC(F)C3)c(C(F)(F)F)cc2=O)c2cc(ccc2C)Oc2cccc(C)c2-c2cc(C)c(F)c1c2` (some centres unmarked) displayed a ring closure, isolated yield (from CCOC(=O)C[C@H](NC(=O)C(c1cc(Br)ccc1C)n1cc(CCN2CC(F)C2)c(C(F)(F)F)cc1=O)c1cc(-c2c(C)cccc2O)cc(C)c1F, CuI/K2CO3/(1R,2R)-N1,N2-dimethylcyclohexane-1,2-diamine, 1,4-dioxane) of 88.9%.

Take `CCOC(=O)C[C@H](NC(=O)C(c1cc(Br)ccc1F)n1ccc(C(F)(F)F)c(Cl)c1=O)c1cc(-c2c(C)cccc2O)cc(C)c1F` (some centres unmarked): for the setting “the molecule shown is the open-chain precursor, CuI/K2CO3/(1R,2R)-N1,N2-dimethylcyclohexane-1,2-diamine, 1,4-dioxane, 43.3 mM”, the ring closure, isolated yield turned out to be 56.1%.

`CCOC(=O)C[C@@H]1NC(=O)C(n2cc(CCN3CC(F)C3)c(C(F)(F)F)cc2=O)c2cc(ccc2F)Oc2cc(C(F)(F)F)cc(C)c2-c2cc(C)c(F)c1c2` (some centres unmarked) registered a ring closure, isolated yield (from CCOC(=O)C[C@H](NC(=O)C(c1cc(Br)ccc1F)n1cc(CCN2CC(F)C2)c(C(F)(F)F)cc1=O)c1cc(-c2c(C)cc(C(F)(F)F)cc2O)cc(C)c1F, CuI/K2CO3/(1R,2R)-N1,N2-dimethylcyclohexane-1,2-diamine, 1,4-dioxane, 30.0 mM, 16.0 h) of 55%.

Regarding `CCOC(=O)C[C@@H]1NC(=O)C(n2cc(CCCN(C)C)c(C(F)(F)F)cc2=O)c2cc(ccc2F)Oc2cccc(C)c2-c2cc(C)c(F)c1c2` (stereo in doubt), for the setting “from CCOC(=O)C[C@H](NC(=O)C(c1cc(Br)ccc1F)n1cc(CCCN(C)C)c(C(F)(F)F)cc1=O)c1cc(-c2c(C)cccc2O)cc(C)c1F, CuI/K2CO3/(1R,2R)-N1,N2-dimethylcyclohexane-1,2-diamine, 1,4-dioxane, 62.0 mM, 16.0 h”, the ring closure, isolated yield came out at 55.6%.

Molecule `CCOC(=O)C[C@@H]1NC(=O)C(n2cc(CCN3CC(F)C3)c(C(F)(F)F)cc2=O)c2cccc(c2)Oc2cc(C)cc(C)c2-c2cc1c(F)c(C(F)(F)F)c2` (some centres unmarked) came in with a ring closure, isolated yield (from CCOC(=O)C[C@H](NC(=O)C(c1cccc(Br)c1)n1cc(CCN2CC(F)C2)c(C(F)(F)F)cc1=O)c1cc(-c2c(C)cc(C)cc2O)cc(C(F)(F)F)c1F, CuI/(1R,2R)-N1,N2-dimethylcyclohexane-1,2-diamine/K2CO3, dioxane, 28.3 mM, 16.0 h) of 66.2%.

With `CCOC(=O)C[C@@H]1NC(=O)C(n2cc(CCN3CC(F)C3)c(C(F)(F)F)cc2=O)c2cc(ccc2F)Oc2ccc(F)c(C)c2-c2cc(C)c(F)c1c2` (stereo in doubt), the ring closure, isolated yield (from CCOC(=O)C[C@H](NC(=O)C(c1cc(Br)ccc1F)n1cc(CCN2CC(F)C2)c(C(F)(F)F)cc1=O)c1cc(-c2c(O)ccc(F)c2C)cc(C)c1F, CuI/K2CO3/(1R,2R)-N1,N2-dimethylcyclohexane-1,2-diamine, dioxane, 34.0 mM, 16.0 h) was determined as 55.2%.

Regarding `CCOC(=O)C[C@@H]1NC(=O)C(n2cc(CCN3CC(F)C3)c(C(F)(F)F)cc2=O)c2cc(ccc2F)Oc2cc(N3CC(OC)C3)cc(C)c2-c2cc(C)c(F)c1c2` (some centres unmarked), the ring closure, isolated yield (from CCOC(=O)C[C@H](NC(=O)C(c1cc(Br)ccc1F)n1cc(CCN2CC(F)C2)c(C(F)(F)F)cc1=O)c1cc(-c2c(C)cc(N3CC(OC)C3)cc2O)cc(C)c1F, CuI/(1R,2R)-N1,N2-dimethylcyclohexane-1,2-diamine/K2CO3, 1,4-dioxane, 30.0 mM, 2.0 h) is 59.2%.

In turn, `CCOC(=O)C[C@@H]1NC(=O)C(n2cc(CCN3CC(F)C3)cc(C)c2=O)c2cc(ccc2F)Oc2cccc(C)c2-c2cc(C)c(F)c1c2` (some centres unmarked) had a ring closure, isolated yield (from CCOC(=O)C[C@H](NC(=O)C(c1cc(Br)ccc1F)n1cc(CCN2CC(F)C2)cc(C)c1=O)c1cc(-c2c(C)cccc2O)cc(C)c1F, CuI/K2CO3/(1R,2R)-N1,N2-dimethylcyclohexane-1,2-diamine, 1,4-dioxane, 20.0 mM, 16.0 h) of 70.9%.

The molecule `CCOC(=O)C[C@@H]1NC(=O)C(n2cc(CCN(C)C)c(C(F)(F)F)cc2=O)c2cc(ccc2F)Oc2cccc(C)c2-c2cc(C)c(F)c1c2` (stereo in doubt) showed a ring closure, isolated yield (from CCOC(=O)C[C@H](NC(=O)C(c1cc(Br)ccc1F)n1cc(CCN(C)C)c(C(F)(F)F)cc1=O)c1cc(-c2c(C)cccc2O)cc(C)c1F, CuI/K2CO3/(1R,2R)-N1,N2-dimethylcyclohexane-1,2-diamine, 1,4-dioxane, 56.0 mM, 16.0 h) of 70%.

As to `CCOC(=O)C[C@@H]1NC(=O)C(n2cc(CCN3CC(F)C3)cc(CC)c2=O)c2cc(ccc2F)Oc2cccc(C)c2-c2cc(C)c(F)c1c2` (stereo in doubt), the ring closure, isolated yield (from CCOC(=O)C[C@H](NC(=O)C(c1cc(Br)ccc1F)n1cc(CCN2CC(F)C2)cc(CC)c1=O)c1cc(-c2c(C)cccc2O)cc(C)c1F, CuI/(1R,2R)-N,N'-dimethylcyclohexane-1,2-diamine/K2CO3, dioxane, 40.0 mM, 16.0 h) amounted to 46.5%.

`CCOC(=O)C[C@H](NC(=O)C(c1cc(Cl)cc(Br)c1)n1cc(CCN2CC(F)C2)c(C(F)(F)F)cc1=O)c1cc(-c2c(C)cccc2O)cc(C(F)(F)F)c1F` (some centres unmarked) showed a ring closure, isolated yield (the molecule shown is the open-chain precursor, CuI/(1R,2R)-N1,N2-dimethylcyclohexane-1,2-diamine/K2CO3, dioxane, 19.0 mM) of 56%.

For the setting “from CCOC(=O)C[C@H](NC(=O)C(c1cc(Br)ccc1F)n1ccc(C(F)(F)F)c(OC)c1=O)c1cc(-c2c(C)cccc2O)cc(C)c1F, CuI/(1S,2S)-N,N'-dimethylcyclohexane-1,2-diamine/K2CO3, 1,4-dioxane, 13.5 mM”, `CCOC(=O)C[C@@H]1NC(=O)C(n2ccc(C(F)(F)F)c(OC)c2=O)c2cc(ccc2F)Oc2cccc(C)c2-c2cc(C)c(F)c1c2` (some centres unmarked) registered a ring closure, isolated yield of 67.3%.

Under “from CCOC(=O)C[C@H](NC(=O)C(c1cc(Br)ccc1F)n1cc(CCN2CC(F)C2)c(C(F)(F)F)cc1=O)c1cc(-c2c(C)cc(Cl)cc2O)cc(C)c1F, CuI/(1R,2R)-N1,N2-dimethylcyclohexane-1,2-diamine/K2CO3, dioxane, 47.0 mM, 16.0 h”, `CCOC(=O)C[C@@H]1NC(=O)C(n2cc(CCN3CC(F)C3)c(C(F)(F)F)cc2=O)c2cc(ccc2F)Oc2cc(Cl)cc(C)c2-c2cc(C)c(F)c1c2` (stereo in doubt) yielded a ring closure, isolated yield of 52.5%.

For the setting “from CCOC(=O)C[C@H](NC(=O)C(c1cc(Br)ccc1F)n1cc(CCN2CC(F)C2)c(C(F)(F)F)cc1=O)c1cc(-c2c(O)ccc(C)c2C)cc(C)c1F, CuI/(1R,2R)-N1,N2-dimethylcyclohexane-1,2-diamine/K2CO3, dioxane, 15.0 mM, 16.0 h”, `CCOC(=O)C[C@@H]1NC(=O)C(n2cc(CCN3CC(F)C3)c(C(F)(F)F)cc2=O)c2cc(ccc2F)Oc2ccc(C)c(C)c2-c2cc(C)c(F)c1c2` (stereo in doubt) yielded a ring closure, isolated yield of 64.7%.

`CCOC(=O)C[C@H](NC(=O)C(c1cccc(Br)c1)n1cc(Cl)c(C(F)(F)F)cc1=O)c1cc(-c2c(C)cccc2O)cc(C(F)(F)F)c1F` (some centres unmarked) showed a ring closure, isolated yield (the molecule shown is the open-chain precursor, CuI/(1R,2R)-N1,N2-dimethylcyclohexane-1,2-diamine/K2CO3, 1,4-dioxane, 23.3 mM) of 71%.

Molecule “ethyl 2-[(14S,17S)-14-{5-[3-(azetidin-1-yl) propyl]-2-oxo-4-(trifluoromethyl) pyridin-1-yl}-12,19-difluoro-3,20-dimethyl-15-oxo-8-oxa-16-azatetracyclo [16.3.1.1^{9,13}.0^{2,7}] tricosa-1(22),2(7),3,5,9,11,13(23),18,20-nonaen-17-yl] acetate” showed a ring closure, isolated yield (CuI/K2CO3/(1R,2R)-N1,N2-dimethylcyclohexane-1,2-diamine, 1,4-dioxane, 46.7 mM) of 62.8%.

As to `CCOC(=O)C[C@@H]1NC(=O)C(n2cc(CCN3CC(F)C3)c(C(F)(F)F)cc2=O)c2cc(ccc2F)Oc2cccc(C)c2-c2cc1c(C)s2` (some centres unmarked), the ring closure, isolated yield (from CCOC(=O)C[C@H](NC(=O)C(c1cc(Br)ccc1F)n1cc(CCN2CC(F)C2)c(C(F)(F)F)cc1=O)c1cc(-c2c(C)cccc2O)sc1C, CuI/K2CO3/(1R,2R)-N1,N2-dimethylcyclohexane-1,2-diamine, dioxane, 26.0 mM) worked out at 55.7%.

`CCOC(=O)C[C@@H]1NC(=O)C(n2cc(CCN3CCC(F)(F)CC3)c(C(F)(F)F)cc2=O)c2cc(ccc2F)Oc2cccc(C)c2-c2cc(C)c(F)c1c2` (some centres unmarked): the ring closure, isolated yield (from CCOC(=O)C[C@H](NC(=O)C(c1cc(Br)ccc1F)n1cc(CCN2CCC(F)(F)CC2)c(C(F)(F)F)cc1=O)c1cc(-c2c(C)cccc2O)cc(C)c1F, CuI/K2CO3/(1R,2R)-N1,N2-dimethylcyclohexane-1,2-diamine, 1,4-dioxane, 36.3 mM, 16.0 h) amounted to 66.2%.

As to `CCOC(=O)C[C@@H]1NC(=O)C(n2ccc(C(F)(F)F)c(C3CC3)c2=O)c2cc(ccc2F)Oc2cccc(C)c2-c2cc(C)c(F)c1c2` (stereo in doubt), the ring closure, isolated yield (from CCOC(=O)C[C@H](NC(=O)C(c1cc(Br)ccc1F)n1ccc(C(F)(F)F)c(C2CC2)c1=O)c1cc(-c2c(C)cccc2O)cc(C)c1F, CuI/K2CO3/(1R,2R)-N1,N2-dimethylcyclohexane-1,2-diamine, dioxane, 45.0 mM) stood at 46.7%.

Where the note is “CuI/K2CO3/(1R,2R)-N1,N2-dimethylcyclohexane-1,2-diamine, 1,4-dioxane, 52.0 mM”, “ethyl 2-((5S,8S)-1^4,4^4-difluoro-5-(5-(2-(3-fluoroazetidin-1-yl)ethyl)-2-oxo-4-(trifluoromethyl)pyridin-1(2H)-yl)-2^6-methyl-6-oxo-3-oxa-7-aza-1,4(1,3),2(1,2)-tribenzenacyclooctaphane-8-yl)acetate” yielded a ring closure, isolated yield of 74.2%.
